This passage reports IC50 results from patent US10711000B2 (Fronthera U.S. Pharmaceuticals LLC, priority 2018, dated 2020).

The target in this assay is T1, Autotaxin (Homo sapiens, UniProt Q13822).
T1 construct: from tissue; host or cells: pooled human plasma
The assay is described as follows: LPA formation in pooled human plasma (ex vivo autotaxin inhibition). The following applies: 2 hours incubation. Type of assay: biochemical. The procedure: Autotaxin is a plasma phosphodiesterase that converts lysophosphatidylcholine (LPC) into lysophosphatidic acid (LPA), therefore LPA formation was used to evaluate the potency of autotaxin inhibitors. The potency of compound was evaluated ex vivo in pooled human plasma.
Various concentrations of compound were incubated with plasma for 2 hours, and the LPA 18:2 and 20:4 concentration was measured by LC/MS/MS. To determine the LPA18:2 or 20:4 concentration in study plasma, a 10× calibration standard of LPA 18:2 or 20:4 were prepared by serial dilution in butyl alcohol: 20000, 10000, 5000, 2000, 1000, 500, 200, 100, 50, 20, and 10 ng/mL. 3 μL of calibration standard solution was added into 27.0 μL of blank plasma in 1.5-mL microcentrifuge tubes to generate 1× calibration standards. The 30.0 μL of standards or study plasma was added into 1.5-mL microcentrifuge tubes. 200 μL of butyl alcohol (containing 25.0 ng/mL LPA17:0 for internal control) was added into each 1.5-mL microcentrifuge tube containing study plasma or calibration standards. After vortexing for 1 minute and centrifuging at 10000 rpm for 10 min, 180 μL of supernatant was transferred into a 96-well plate and the LPA18:2 concentration in the plasma was quantitated using LC/MS/MS together with standards. Briefly, 8 μL of the solutions were injected for LC-MS/MS analysis using an ACQUITY UPLC BEH C18 column (2.1×50 mm, 1.7 μm) with mobile phase A [20 mM NH4OAC in water (0.1% FA)] and phase B [5 mM NH4OAC in water/0.2% FA in ACN=5:95]. Mass spectrometer parameters optimization for LPA18:2 were performed by Deprotonated molecular ion at m/z 433.2 ([M−H]^−) for LPA18:2, 457.2 for LPA20:4 and abundant product ion at m/z 152.8 for both LPA18:2 and LPA20:4 were obtained. Quantitative data were acquired in multiple reaction monitoring (MRM) negative electrospray ionization mode
The inhibition rate of LPA formation was determined by comparing the levels of LPA in treated and non-treated plasma. The data was plotted against the corresponding concentration of compound and the IC50 was calculated through non-linear regression fitting.

The mark [1] stands for this setting: LPA 18:2 by LC/MS/MS, read-out: LPA formation (18:2) (IC50).
The mark [2] stands for this setting: LPA 20:4 by LC/MS/MS, read-out: LPA formation (20:4) (IC50).

The structures appear in SMILES notation. Where two headings read alike, the source gives them in different places. Bounds are passed on as bounds.

For `Cc1cc(N2CC3(CN(C(=O)[C@H]4CCOC4)C3)C2)cc2c(N(C)c3nc(-c4ccc(F)cc4)c(C#N)s3)c(C3CC3)nn12` [Example 78, (S)-2-((2-cyclopropyl-7-methyl-5-(6-(tetrahydrofuran-3-carbonyl)-2,6-diazaspiro[3.3]heptan-2-yl)pyrazolo[1,5-a]pyridin-3-yl)(methyl)amino)-4-(4-fluorophenyl)thiazole-5-carbonitrile], the IC50 is at most 100 nM under setting [1] and at most 100 nM under setting [2].

On to `CCc1nn2c(C)cc(N3CC4(CCN(C(=O)C5CN(C)C5)C4)C3)cc2c1N(C)c1nc(-c2ccc(F)cc2)c(C#N)s1` [Example 47, 2-((2-ethyl-7-methyl-5-(6-(1-methylazetidine-3-carbonyl)-2,6-diazaspiro[3.4]octan-2-yl)pyrazolo[1,5-a]pyridin-3-yl)(methyl)amino)-4-(4-fluorophenyl)thiazole-5-carbonitrile], for which the IC50 was at most 100 nM under setting [1] and 100 to 500 nM under setting [2].

For the compound `CCc1nn2ccc(N3CCN(CC(=O)N(C)C)CC3)cc2c1N(C)c1nc(-c2ccc(F)cc2)c(C#N)s1` [Example 5, 2-(4-(3-((5-cyano-4-(4-fluorophenyl)thiazol-2-yl)(methyl)amino)-2-ethylpyrazolo[1,5-a]pyridin-5-yl)piperazin-1-yl)-N,N-dimethylacetamide], the IC50 is at most 100 nM under setting [1] and at most 100 nM under setting [2].

For `CN(c1nc(-c2ccc(F)cc2)c(C#N)s1)c1c(C2CC2)nn2ccc(N3CC4(CN(C(=O)[C@H]5CCOC5)C4)C3)cc12` [Example 22, (S)-2-((2-cyclopropyl-5-(6-(tetrahydrofuran-3-carbonyl)-2,6-diazaspiro[3.3]heptan-2-yl)pyrazolo[1,5-a]pyridin-3-yl)(methyl)amino)-4-(4-fluorophenyl)thiazole-5-carbonitrile], the IC50 was at most 100 nM under setting [1] and at most 100 nM under setting [2].

With `CCc1nn2c(C)cc(N3CC4(CN(C(=O)OC5CCOC5)C4)C3)cc2c1N(C)c1nc(-c2ccc(F)cc2)c(C#N)s1` (stereo not drawn) [Example 34, tetrahydrofuran-3-yl 6-(3-((5-cyano-4-(4-fluorophenyl)thiazol-2-yl)(methyl)amino)-2-ethyl-7-methylpyrazolo[1,5-a]pyridin-5-yl)-2,6-diazaspiro[3.3]heptane-2-carboxylate], the IC50 under setting [1] lay in the range of 100 to 500 nM and the IC50 under setting [2] lay in the range of 100 to 500 nM.

As to `CCc1nn2ccc(N3CCC4(CN(C(=O)N5CC(O)C5)C4)C3)cc2c1N(C)c1nc(-c2ccc(F)cc2)c(C#N)s1` [Example 16, 2-((2-ethyl-5-(2-(3-hydroxyazetidine-1-carbonyl)-2,6-diazaspiro[3.4]octan-6-yl)pyrazolo[1,5-a]pyridin-3-yl)(methyl)amino)-4-(4-fluorophenyl)thiazole-5-carbonitrile], the IC50 reads like this: under setting [1], at most 100 nM; under setting [2], at most 100 nM.

For `CCc1nn2c(C)cc(N3CC4(CN(C(=O)C5CCN(C)CC5)C4)C3)cc2c1N(C)c1nc(-c2ccc(F)cc2)c(C#N)s1` [Example 33, 2-((2-ethyl-7-methyl-5-(6-(1-methylpiperidine-4-carbonyl)-2,6-diazaspiro[3.3]heptan-2-yl)pyrazolo[1,5-a]pyridin-3-yl)(methyl)amino)-4-(4-fluorophenyl)thiazole-5-carbonitrile], the IC50 is at most 100 nM under setting [1] and 100 to 500 nM under setting [2].

Consider `CCc1nn2c(C)cc(N3CC4(CN(C(=O)C5COC5)C4)C3)cc2c1N(C)c1nc(-c2ccc(F)cc2)c(C#N)s1` [Example 31, 2-((2-ethyl-7-methyl-5-(6-(oxetane-3-carbonyl)-2,6-diazaspiro[3.3]heptan-2-yl)pyrazolo[1,5-a]pyridin-3-yl)(methyl)amino)-4-(4-fluorophenyl)thiazole-5-carbonitrile], for which the IC50 by setting is: under setting [1], 100 to 500 nM; under setting [2], 100 to 500 nM.

For the compound `CCc1nn2cc(F)c(N3CC4(CN(C(=O)N5CCOCC5)C4)C3)cc2c1N(C)c1nc(-c2ccc(F)cc2)c(C#N)s1` [Example 108, 2-((2-ethyl-6-fluoro-5-(6-(morpholine-4-carbonyl)-2,6-diazaspiro[3.3]heptan-2-yl)pyrazolo[1,5-a]pyridin-3-yl)(methyl)amino)-4-(4-fluorophenyl)thiazole-5-carbonitrile], the IC50 is at most 100 nM under setting [1] and at most 100 nM under setting [2].

As to `Cc1cc(N2CCN(C[C@H](O)CO)CC2)cc2c(N(C)c3nc(-c4ccc(F)cc4)c(C#N)s3)c(C3CC3)nn12` [Example 83, (S)-2-((2-cyclopropyl-5-(4-(2,3-dihydroxypropyl)piperazin-1-yl)-7-methylpyrazolo[1,5-a]pyridin-3-yl)(methyl)amino)-4-(4-fluorophenyl)thiazole-5-carbonitrile], the IC50 under setting [1] was 500 to 1000 nM and the IC50 under setting [2] lay in the range of 500 to 1000 nM.

On to `CCc1nn2ccc(N3CC4(CC(C(=O)N5CC(O)C5)C4)C3)cc2c1N(C)c1nc(-c2ccc(F)cc2)c(C#N)s1` [Example 8, 2-[[2-ethyl-5-[6-(3-hydroxyazetidine-1-carbonyl)-2-azaspiro[3.3]heptan-2-yl]pyrazolo[1,5-a]pyridin-3-yl]-methyl-amino]-4-(4-fluorophenyl)thiazole-5-carbonitrile], for which the IC50 under setting [1] lay within 100 to 500 nM and the IC50 under setting [2] lay within 100 to 500 nM.

For the compound `CCc1nn2c(C)cc(N3CC4(CN(C(=O)C(O)CO)C4)C3)cc2c1N(C)c1nc(-c2ccc(F)cc2)c(C#N)s1` (stereo not drawn) [Example 60, 2-((5-(6-(2,3-dihydroxypropanoyl)-2,6-diazaspiro[3.3]heptan-2-yl)-2-ethyl-7-methylpyrazolo[1,5-a]pyridin-3-yl)(methyl)amino)-4-(4-fluorophenyl)thiazole-5-carbonitrile], the IC50 was at most 100 nM under setting [1] and 100 to 500 nM under setting [2].

`Cc1cc(N2CC3(CN(C(=O)C(C)(C)O)C3)C2)cc2c(N(C)c3nc(-c4ccc(F)cc4)c(C#N)s3)c(C3CC3)nn12` [Example 77, 2-((2-cyclopropyl-5-(6-(2-hydroxy-2-methylpropanoyl)-2,6-diazaspiro[3.3]heptan-2-yl)-7-methylpyrazolo[1,5-a]pyridin-3-yl)(methyl)amino)-4-(4-fluorophenyl)thiazole-5-carbonitrile]: the IC50 was at most 100 nM under setting [1] and at most 100 nM under setting [2].

Turning to `Cc1cc(N2CCN(CC(=O)O)CC2)cc2c(N(C)c3nc(-c4ccc(F)cc4)c(C#N)s3)c(C3CC3)nn12` [Example 80, 2-(4-(3-((5-cyano-4-(4-fluorophenyl)thiazol-2-yl)(methyl)amino)-2-cyclopropyl-7-methylpyrazolo[1,5-a]pyridin-5-yl)piperazin-1-yl)acetic acid], the IC50 reads like this: under setting [1], above 1000 nM; under setting [2], above 1000 nM.

In the case of `CCc1nn2cc(F)c(N3CCC4(CN(C(=O)N5CC(O)C5)C4)C3)cc2c1N(C)c1nc(-c2ccc(F)cc2)c(C#N)s1` [Example 111, 2-((2-ethyl-6-fluoro-5-(2-(3-hydroxyazetidine-1-carbonyl)-2,6-diazaspiro[3.4]octan-6-yl)pyrazolo[1,5-a]pyridin-3-yl)(methyl)amino)-4-(4-fluorophenyl)thiazole-5-carbonitrile], the IC50 runs as follows: under setting [1], at most 100 nM; under setting [2], at most 100 nM.

Consider `CCc1nn2c(C)cc(N3CC4(CN(C(=O)C5CCOCC5)C4)C3)cc2c1N(C)c1nc(-c2ccc(F)cc2)c(C#N)s1` [Example 41, 2-((2-ethyl-7-methyl-5-(6-(tetrahydro-2H-pyran-4-carbonyl)-2,6-diazaspiro[3.3]heptan-2-yl)pyrazolo[1,5-a]pyridin-3-yl)(methyl)amino)-4-(4-fluorophenyl)thiazole-5-carbonitrile], for which the IC50 is at most 100 nM under setting [1] and at most 100 nM under setting [2].

Take `CCc1nn2c(C)cc(N3CC4(CN(C(=O)C5(O)CC5)C4)C3)cc2c1N(C)c1nc(-c2ccc(F)cc2)c(C#N)s1` [Example 61, 2-((2-ethyl-5-(6-(1-hydroxycyclopropane-1-carbonyl)-2,6-diazaspiro[3.3]heptan-2-yl)-7-methylpyrazolo[1,5-a]pyridin-3-yl)(methyl)amino)-4-(4-fluorophenyl)thiazole-5-carbonitrile]: the IC50 is, setting by setting: under setting [1], 100 to 500 nM; under setting [2], 100 to 500 nM.

In the case of `CCc1nn2c(C)cc(N3CC4(CN(C(=O)[C@@H]5CCOC5)C4)C3)cc2c1N(C)c1nc(-c2ccc(F)cc2)c(C#N)s1` [Example 40, (R)-2-((2-ethyl-7-methyl-5-(6-(tetrahydrofuran-3-carbonyl)-2,6-diazaspiro[3.3]heptan-2-yl)pyrazolo[1,5-a]pyridin-3-yl)(methyl)amino)-4-(4-fluorophenyl)thiazole-5-carbonitrile], the IC50 under setting [1] is at most 100 nM and the IC50 under setting [2] was at most 100 nM.
